Experiments:
Test in all cases: biochemical
Assay type in all cases: biochemical
[1] = molecular target: T1, 382 unique human kinases (Homo sapiens, UniProt P00519, T315I); settings: ABL1 (T315I), 10 uM; for remaining activity at 10 µM: read-out: % Enzyme Activity (relative to DMSO controls)
T1 construct: purchased Reaction Biology (HotSpot contract assay)

[2] = molecular target: T2, 382 unique human kinases (Homo sapiens, UniProt P37173); settings: kinase TGFBR2, compound 10 uM; for remaining activity at 10 µM: read-out: % Enzyme Activity (relative to DMSO controls)
T2 construct: purchased Reaction Biology (HotSpot contract assay)
T2 sequence (P37173 23-567): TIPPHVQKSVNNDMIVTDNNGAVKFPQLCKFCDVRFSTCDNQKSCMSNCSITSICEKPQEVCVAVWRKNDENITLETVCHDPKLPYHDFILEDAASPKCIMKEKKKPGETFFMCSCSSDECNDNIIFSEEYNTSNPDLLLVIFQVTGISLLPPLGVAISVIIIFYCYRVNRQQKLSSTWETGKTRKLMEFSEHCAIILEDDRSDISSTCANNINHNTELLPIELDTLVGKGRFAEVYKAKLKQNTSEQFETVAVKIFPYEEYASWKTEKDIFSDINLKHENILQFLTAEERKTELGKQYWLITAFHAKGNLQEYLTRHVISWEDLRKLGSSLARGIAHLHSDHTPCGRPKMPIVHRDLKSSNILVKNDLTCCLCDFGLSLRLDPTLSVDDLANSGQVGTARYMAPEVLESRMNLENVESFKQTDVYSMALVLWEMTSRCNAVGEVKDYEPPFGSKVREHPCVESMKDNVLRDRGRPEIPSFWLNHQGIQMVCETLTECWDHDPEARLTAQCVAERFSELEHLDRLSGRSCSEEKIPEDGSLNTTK

[3] = molecular target: T3, 382 unique human kinases (Homo sapiens, UniProt Q13188); settings: kinase MST2/STK3, compound 10 uM; for remaining activity at 10 µM: read-out: % Enzyme Activity (relative to DMSO controls)
T3 construct: purchased Reaction Biology (HotSpot contract assay)
T3 sequence (Q13188 1-491): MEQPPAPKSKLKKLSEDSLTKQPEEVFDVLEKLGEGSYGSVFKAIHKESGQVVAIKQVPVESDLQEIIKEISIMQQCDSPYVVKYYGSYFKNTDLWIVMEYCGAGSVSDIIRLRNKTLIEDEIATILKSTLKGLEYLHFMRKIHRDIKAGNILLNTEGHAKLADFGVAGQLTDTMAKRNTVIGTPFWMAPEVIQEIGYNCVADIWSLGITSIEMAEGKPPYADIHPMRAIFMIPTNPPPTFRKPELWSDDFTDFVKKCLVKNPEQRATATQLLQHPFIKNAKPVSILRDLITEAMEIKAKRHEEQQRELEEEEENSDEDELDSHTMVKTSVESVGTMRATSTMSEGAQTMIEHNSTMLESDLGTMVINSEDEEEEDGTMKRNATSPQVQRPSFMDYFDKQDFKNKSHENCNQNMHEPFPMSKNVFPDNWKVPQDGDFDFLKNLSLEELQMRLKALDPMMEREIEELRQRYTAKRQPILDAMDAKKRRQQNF

[4] = molecular target: T4, 382 unique human kinases (Homo sapiens, UniProt Q86Y07); settings: kinase VRK2, compound 10 uM; for remaining activity at 10 µM: read-out: % Enzyme Activity (relative to DMSO controls)
T4 construct: purchased Reaction Biology (HotSpot contract assay)
T4 sequence (Q86Y07 whole entry): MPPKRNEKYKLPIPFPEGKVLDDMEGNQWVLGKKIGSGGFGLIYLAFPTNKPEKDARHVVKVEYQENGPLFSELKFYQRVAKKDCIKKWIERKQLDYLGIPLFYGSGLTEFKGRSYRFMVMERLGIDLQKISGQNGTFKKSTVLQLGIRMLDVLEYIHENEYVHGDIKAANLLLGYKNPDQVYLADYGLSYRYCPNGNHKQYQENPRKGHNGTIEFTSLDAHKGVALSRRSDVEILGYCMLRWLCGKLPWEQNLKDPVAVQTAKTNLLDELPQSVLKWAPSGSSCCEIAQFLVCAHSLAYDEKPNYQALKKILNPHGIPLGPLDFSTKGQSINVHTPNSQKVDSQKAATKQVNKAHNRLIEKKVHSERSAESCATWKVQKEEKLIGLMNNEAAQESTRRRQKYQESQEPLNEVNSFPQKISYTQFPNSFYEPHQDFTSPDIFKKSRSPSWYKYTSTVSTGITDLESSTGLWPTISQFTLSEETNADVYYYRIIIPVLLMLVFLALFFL

[5] = molecular target: T5, 382 unique human kinases (Homo sapiens, UniProt Q99683); settings: ASK1/MAP3K5, compound at 10 uM, duplicate values; for remaining activity at 10 µM: read-out: % Enzyme Activity (relative to DMSO controls)
T5 construct: purchased Reaction Biology (HotSpot contract assay)
T5 sequence (Q99683 1-1374): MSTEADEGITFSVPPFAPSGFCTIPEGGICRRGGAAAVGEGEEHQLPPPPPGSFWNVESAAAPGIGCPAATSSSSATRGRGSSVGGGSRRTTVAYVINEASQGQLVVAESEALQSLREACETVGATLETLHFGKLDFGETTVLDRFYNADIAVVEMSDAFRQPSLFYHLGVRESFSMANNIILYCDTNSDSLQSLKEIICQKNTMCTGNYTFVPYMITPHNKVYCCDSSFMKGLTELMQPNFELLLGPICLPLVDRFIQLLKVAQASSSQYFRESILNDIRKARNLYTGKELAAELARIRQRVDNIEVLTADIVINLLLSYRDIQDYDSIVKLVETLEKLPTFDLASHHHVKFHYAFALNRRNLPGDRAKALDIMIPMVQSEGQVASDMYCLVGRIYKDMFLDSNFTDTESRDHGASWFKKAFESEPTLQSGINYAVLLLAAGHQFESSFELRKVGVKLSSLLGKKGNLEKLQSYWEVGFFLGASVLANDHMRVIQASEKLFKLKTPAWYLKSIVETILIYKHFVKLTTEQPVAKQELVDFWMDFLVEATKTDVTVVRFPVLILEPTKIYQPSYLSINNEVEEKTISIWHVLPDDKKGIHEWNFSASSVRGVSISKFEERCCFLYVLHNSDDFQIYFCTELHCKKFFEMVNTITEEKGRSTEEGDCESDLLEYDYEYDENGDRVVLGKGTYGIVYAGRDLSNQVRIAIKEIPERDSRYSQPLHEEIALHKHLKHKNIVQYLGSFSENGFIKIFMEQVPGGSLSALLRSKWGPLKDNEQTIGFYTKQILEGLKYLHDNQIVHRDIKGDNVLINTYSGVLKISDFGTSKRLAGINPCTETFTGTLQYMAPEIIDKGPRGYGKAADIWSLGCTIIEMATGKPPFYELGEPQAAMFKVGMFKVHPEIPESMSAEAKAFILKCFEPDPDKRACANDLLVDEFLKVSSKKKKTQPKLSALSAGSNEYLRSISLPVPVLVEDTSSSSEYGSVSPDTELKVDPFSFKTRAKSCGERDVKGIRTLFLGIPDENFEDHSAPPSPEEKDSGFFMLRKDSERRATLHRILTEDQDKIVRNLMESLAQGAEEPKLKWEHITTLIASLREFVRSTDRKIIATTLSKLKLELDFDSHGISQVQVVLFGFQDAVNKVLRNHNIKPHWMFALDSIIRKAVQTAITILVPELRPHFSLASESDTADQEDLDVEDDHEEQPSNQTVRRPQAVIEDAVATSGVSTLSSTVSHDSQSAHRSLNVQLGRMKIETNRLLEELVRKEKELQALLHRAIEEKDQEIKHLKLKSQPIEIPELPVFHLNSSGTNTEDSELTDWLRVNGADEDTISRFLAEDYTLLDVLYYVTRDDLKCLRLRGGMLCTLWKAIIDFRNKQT

[6] = molecular target: T6, 382 unique human kinases (Homo sapiens, UniProt Q9BYT3); settings: kinase STK33, compound 10 uM; for remaining activity at 10 µM: read-out: % Enzyme Activity (relative to DMSO controls)
T6 construct: purchased Reaction Biology (HotSpot contract assay)
T6 sequence (Q9BYT3 whole entry): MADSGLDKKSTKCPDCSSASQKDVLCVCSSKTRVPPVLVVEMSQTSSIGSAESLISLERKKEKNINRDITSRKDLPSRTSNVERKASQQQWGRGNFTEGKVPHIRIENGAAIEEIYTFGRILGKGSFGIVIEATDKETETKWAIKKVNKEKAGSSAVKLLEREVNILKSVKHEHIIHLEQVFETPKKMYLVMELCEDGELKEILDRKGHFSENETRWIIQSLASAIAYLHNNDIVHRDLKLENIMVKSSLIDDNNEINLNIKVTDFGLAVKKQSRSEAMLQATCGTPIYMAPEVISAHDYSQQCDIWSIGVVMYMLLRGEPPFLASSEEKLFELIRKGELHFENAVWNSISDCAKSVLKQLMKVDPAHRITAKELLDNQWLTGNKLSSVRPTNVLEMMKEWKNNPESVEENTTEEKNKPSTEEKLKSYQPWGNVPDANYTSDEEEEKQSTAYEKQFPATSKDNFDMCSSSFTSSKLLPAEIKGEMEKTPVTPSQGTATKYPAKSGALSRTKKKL

[7] = molecular target: T7, 382 unique human kinases (Homo sapiens, UniProt P10721, A829P); settings: c-Kit (A829P), [ATP] 50 µM, compound 10 uM; for remaining activity at 10 µM: read-out: % Enzyme Activity (relative to DMSO controls)
T7 construct: purchased Reaction Biology (HotSpot contract assay)
T7 sequence (P10721 26-976 A829P): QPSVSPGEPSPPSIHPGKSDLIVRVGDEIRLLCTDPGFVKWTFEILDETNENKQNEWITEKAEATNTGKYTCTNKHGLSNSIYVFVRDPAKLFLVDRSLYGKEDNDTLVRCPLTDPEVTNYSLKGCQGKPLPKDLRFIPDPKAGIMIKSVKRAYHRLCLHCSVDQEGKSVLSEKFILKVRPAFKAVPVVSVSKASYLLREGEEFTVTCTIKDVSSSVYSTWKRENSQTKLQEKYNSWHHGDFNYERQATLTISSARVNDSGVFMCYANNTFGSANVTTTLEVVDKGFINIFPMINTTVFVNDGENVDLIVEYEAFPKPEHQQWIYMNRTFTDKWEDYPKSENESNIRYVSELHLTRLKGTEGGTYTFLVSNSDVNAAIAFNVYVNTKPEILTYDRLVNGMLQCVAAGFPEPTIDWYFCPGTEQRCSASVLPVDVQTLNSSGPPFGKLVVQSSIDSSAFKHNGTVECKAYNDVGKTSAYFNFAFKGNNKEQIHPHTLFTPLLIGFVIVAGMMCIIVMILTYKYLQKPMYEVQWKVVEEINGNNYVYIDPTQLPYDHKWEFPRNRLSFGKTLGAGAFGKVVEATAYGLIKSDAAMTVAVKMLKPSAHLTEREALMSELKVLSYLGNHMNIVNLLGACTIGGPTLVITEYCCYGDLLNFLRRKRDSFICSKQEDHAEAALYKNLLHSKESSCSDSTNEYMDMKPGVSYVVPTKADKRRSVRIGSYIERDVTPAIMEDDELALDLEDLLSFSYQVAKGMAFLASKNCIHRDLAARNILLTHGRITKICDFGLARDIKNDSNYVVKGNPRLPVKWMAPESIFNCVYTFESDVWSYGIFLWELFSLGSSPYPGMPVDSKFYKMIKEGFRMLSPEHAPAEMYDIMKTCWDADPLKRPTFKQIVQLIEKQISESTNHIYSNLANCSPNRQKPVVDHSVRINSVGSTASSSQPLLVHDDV

[8] = molecular target: T8, 382 unique human kinases (Homo sapiens, UniProt Q07912); settings: ACK1, [ATP] 100 µM, compound 10 uM; for remaining activity at 10 µM: read-out: % Enzyme Activity (relative to DMSO controls)
T8 construct: purchased Reaction Biology (HotSpot contract assay)
T8 sequence (Q07912 whole entry): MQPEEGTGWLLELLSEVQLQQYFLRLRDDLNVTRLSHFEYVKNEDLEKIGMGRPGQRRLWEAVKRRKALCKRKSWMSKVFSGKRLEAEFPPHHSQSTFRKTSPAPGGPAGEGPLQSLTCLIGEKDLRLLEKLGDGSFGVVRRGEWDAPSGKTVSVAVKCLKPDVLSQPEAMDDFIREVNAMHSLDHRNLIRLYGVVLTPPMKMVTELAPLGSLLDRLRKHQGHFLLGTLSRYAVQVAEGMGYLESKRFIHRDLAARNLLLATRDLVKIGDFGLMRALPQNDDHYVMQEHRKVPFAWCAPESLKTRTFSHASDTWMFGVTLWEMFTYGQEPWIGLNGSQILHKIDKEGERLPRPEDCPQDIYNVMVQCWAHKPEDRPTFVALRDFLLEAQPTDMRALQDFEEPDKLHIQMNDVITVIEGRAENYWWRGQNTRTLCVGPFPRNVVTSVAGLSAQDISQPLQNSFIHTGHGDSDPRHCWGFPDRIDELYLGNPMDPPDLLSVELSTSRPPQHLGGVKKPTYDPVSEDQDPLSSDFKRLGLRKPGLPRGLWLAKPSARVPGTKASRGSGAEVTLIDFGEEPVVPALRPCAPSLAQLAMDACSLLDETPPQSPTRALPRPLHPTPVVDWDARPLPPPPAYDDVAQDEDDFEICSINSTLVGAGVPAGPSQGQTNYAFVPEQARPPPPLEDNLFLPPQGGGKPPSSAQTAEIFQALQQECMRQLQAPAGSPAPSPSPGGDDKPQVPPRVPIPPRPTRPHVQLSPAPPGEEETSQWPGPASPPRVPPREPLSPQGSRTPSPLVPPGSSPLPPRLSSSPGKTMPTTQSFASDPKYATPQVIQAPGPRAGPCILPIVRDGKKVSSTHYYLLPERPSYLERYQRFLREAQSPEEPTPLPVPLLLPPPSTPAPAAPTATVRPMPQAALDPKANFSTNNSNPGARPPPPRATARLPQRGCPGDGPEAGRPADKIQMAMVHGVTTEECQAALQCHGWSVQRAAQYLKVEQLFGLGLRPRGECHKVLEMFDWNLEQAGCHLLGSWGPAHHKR

[9] = molecular target: T9, 382 unique human kinases (Homo sapiens, UniProt Q86YV6); settings: MYLK4, [ATP] 50 µM, compound 10 uM; for remaining activity at 10 µM: read-out: % Enzyme Activity (relative to DMSO controls)
T9 construct: purchased Reaction Biology (HotSpot contract assay)
T9 sequence (Q86YV6 1-388): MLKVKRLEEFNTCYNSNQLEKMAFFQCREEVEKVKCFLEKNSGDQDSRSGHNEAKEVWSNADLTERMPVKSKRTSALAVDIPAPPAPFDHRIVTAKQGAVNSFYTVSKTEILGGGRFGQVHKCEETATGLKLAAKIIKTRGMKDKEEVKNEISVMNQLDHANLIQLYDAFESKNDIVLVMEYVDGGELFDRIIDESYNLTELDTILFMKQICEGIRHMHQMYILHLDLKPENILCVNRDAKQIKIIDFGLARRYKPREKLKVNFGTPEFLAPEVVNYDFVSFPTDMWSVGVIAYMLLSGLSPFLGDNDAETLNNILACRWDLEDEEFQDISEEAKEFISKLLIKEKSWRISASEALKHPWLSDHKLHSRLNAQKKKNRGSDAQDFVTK

[10] = molecular target: T10, 382 unique human kinases (Homo sapiens, UniProt Q9UK32); settings: RSK4, [ATP] 30 µM, compound 10 uM; for remaining activity at 10 µM: read-out: % Enzyme Activity (relative to DMSO controls)
T10 construct: purchased Reaction Biology (HotSpot contract assay)
T10 sequence (Q9UK32 whole entry): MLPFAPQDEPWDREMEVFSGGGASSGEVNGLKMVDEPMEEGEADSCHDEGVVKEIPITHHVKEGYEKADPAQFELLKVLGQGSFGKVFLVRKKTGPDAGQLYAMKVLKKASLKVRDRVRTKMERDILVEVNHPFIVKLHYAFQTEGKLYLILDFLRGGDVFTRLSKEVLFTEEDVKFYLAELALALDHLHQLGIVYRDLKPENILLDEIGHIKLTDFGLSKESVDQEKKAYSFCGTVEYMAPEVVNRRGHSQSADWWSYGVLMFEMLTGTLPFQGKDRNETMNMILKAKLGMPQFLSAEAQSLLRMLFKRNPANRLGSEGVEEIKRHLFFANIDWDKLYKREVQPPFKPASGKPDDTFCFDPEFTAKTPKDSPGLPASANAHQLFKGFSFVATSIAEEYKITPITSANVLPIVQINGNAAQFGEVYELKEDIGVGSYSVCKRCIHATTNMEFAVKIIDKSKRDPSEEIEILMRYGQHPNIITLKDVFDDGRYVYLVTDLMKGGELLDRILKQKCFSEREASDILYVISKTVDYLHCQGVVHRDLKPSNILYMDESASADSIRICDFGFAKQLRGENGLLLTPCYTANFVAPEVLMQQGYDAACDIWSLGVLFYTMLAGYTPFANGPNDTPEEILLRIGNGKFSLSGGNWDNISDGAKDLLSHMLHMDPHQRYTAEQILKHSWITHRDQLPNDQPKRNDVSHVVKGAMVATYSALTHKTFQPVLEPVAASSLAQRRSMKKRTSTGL

Structure (SMILES) | remaining activity at 10 µM [1] | remaining activity at 10 µM [2] | remaining activity at 10 µM [3] | remaining activity at 10 µM [4] | remaining activity at 10 µM [5] | remaining activity at 10 µM [6] | remaining activity at 10 µM [7] | remaining activity at 10 µM [8] | remaining activity at 10 µM [9] | remaining activity at 10 µM [10] | % Enzyme Activity (relative to DMSO controls) [1] | % Enzyme Activity (relative to DMSO controls) [2] | % Enzyme Activity (relative to DMSO controls) [3] | % Enzyme Activity (relative to DMSO controls) [4] | % Enzyme Activity (relative to DMSO controls) [5] | % Enzyme Activity (relative to DMSO controls) [6] | % Enzyme Activity (relative to DMSO controls) [7] | % Enzyme Activity (relative to DMSO controls) [8] | % Enzyme Activity (relative to DMSO controls) [9] | % Enzyme Activity (relative to DMSO controls) [10]
CC(C)c1cc(-c2n[nH]c(=O)n2-c2ccc3c(ccn3C)c2)c(O)cc1O [Ganetespib (STA9090)] | 72.8% | 92.9% | 78.8% | 91.2% | 110% | 81.4% | – | – | – | – | – | – | – | – | – | – | – | – | – | –
CC(C)c1cc(-c2n[nH]c(=O)n2-c2ccc3c(ccn3C)c2)c(O)cc1O [Ganetespib] | – | – | – | – | – | – | 49.5% | 47% | 60.1% | 27.5% | – | – | – | – | – | – | – | – | – | –
CCNC(=O)c1noc(-c2cc(C(C)C)c(O)cc2O)c1-c1ccc(CN2CCOCC2)cc1 [Luminespib (AUY-922)] | 114% | 129% | 93.3% | 102% | 106% | 104% | – | – | – | – | 112.00% | 124.56% | 89.89% | 100.26% | 105.53% | 103.02% | – | – | – | –
CCNC(=O)c1noc(-c2cc(C(C)C)c(O)cc2O)c1-c1ccc(CN2CCOCC2)cc1 [Luminespib] | – | – | – | – | – | – | 85.3% | 89.5% | 96.7% | 96% | – | – | – | – | – | – | 84.14% | 88.83% | 95.56% | 94.35%

Source: paper PMC8550792, “Evolution of kinase polypharmacology across HSP90 drug discovery” (Cell Chemical Biology, 2021)
